Test results published in patent US5210193A, “Piperazine derivatives” (American Cyanamid Company, priority 1990, dated 1993).
Values after ≈ are worked out from the molar mass of the structure shown.

Experiments:
Assay in all cases: in vitro antibacterial MIC, agar plate dilution
Assay type in all cases: cell-based
[1] = system: Enterobacter cloacae VGH 84-37; conditions: Enterobacter cloacae, VGH8437, 18 h, 35° C., read-out: MIC
How it was run: (§1)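 Agar plate dilution on Mueller-Hinton agar, inoculum approximately 10^4 CFU per organism applied with a Steers replicator. MIC (mcg/ml) is the lowest compound concentration inhibiting visible growth after 18 hours at 35° C.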

[2] = system: Escherichia coli CMC 84-16; conditions: Escherichia coli, CMC8416, 18 h, 35° C., read-out: MIC
How it was run: as §1

[3] = system: Escherichia coli PRNT 311; conditions: PRNT311, 18 hours, 35° C., read-out: MIC
How it was run: as §1

[4] = system: Staphylococcus aureus CMC 83-127; conditions: Staphylococcus aureus, CMC83127, 18 h, 35° C., read-out: MIC
How it was run: as §1

MIC [1]: 0.03 µg/mL (≈ 0.0755 µM)
MIC [2]: 0.03 µg/mL (≈ 0.0755 µM)
MIC [3]: 0.06 µg/mL (≈ 0.151 µM)
MIC [4]: 8 ng/mL (≈ 0.0201 µM)
SMILES: O=C(O)c1cn(C2CC2)c2cc(N3CCNC(c4ccco4)C3)c(F)cc2c1=O (stereo not shown) [Example 62, 1-Cyclopropyl-6-fluoro-7-[3-(2-furanvl)-1-piperazinyl]-1,4-dihydro-4-oxo-3-quinolinecarboxylic acid]
